Assay results: US8563559B2 (Rigel Pharmaceuticals, Inc., priority 2006, dated 2013)

biological target: T1, Axl (Homo sapiens, UniProt P30530); assay: Phospho-AKT in-cell Western assay (inhibition of Axl activity); type: cell-based; conditions: Table 1, formula (Ia); Hela cells, Axl antibody cross-linking stimulation, phospho-Akt chemiluminescence normalized to relative cell number
T1 construct: endogenous in cells; host or cells: HeLa
T1 sequence (P30530 26-894): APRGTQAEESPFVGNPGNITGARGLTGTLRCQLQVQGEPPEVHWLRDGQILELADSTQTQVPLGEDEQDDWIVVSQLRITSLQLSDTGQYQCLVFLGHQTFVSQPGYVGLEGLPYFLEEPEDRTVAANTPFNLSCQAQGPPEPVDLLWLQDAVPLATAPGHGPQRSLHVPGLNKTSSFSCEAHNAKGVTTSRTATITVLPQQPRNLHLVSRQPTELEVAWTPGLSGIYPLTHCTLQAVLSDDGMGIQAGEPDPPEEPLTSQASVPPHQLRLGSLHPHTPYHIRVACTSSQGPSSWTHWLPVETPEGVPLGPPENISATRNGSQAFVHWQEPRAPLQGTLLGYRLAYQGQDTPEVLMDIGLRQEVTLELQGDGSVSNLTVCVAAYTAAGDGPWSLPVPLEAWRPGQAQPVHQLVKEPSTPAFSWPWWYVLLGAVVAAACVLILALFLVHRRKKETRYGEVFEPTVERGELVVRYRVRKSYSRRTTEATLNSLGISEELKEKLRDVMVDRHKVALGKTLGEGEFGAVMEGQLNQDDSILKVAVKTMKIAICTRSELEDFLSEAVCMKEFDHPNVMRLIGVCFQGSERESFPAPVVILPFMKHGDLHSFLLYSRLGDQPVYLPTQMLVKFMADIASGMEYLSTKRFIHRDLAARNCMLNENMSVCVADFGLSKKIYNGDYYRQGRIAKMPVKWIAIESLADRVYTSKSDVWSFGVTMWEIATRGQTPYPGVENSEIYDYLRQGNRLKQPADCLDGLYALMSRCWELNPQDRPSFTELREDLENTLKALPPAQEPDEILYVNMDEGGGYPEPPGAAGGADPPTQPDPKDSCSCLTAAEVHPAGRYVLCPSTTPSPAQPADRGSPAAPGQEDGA
Protocol: The compounds of the invention were tested in the following assay for their ability to inhibit Axl activity.
Phospho-AKT in-Cell Western Assay
• Cell culture plate: 96 well assay plate (Corning 3610), white, clear bottom, tissue-culture treated. • Cells: Hela cells. • Starvation medium: For Axl stimulation: 0.5% FCS (fetal calf serum) in DMEM, plus Axl/Fc (extracellular domain of AXL fused to immunoglobulin Fc region) (R&D, 154-AL) 500 ng/mL. • For EGF (epidermal growth factor) stimulation: 0.5% FCS in DMEM (Dulbecco's modified Eagles medium). • Poly-L-Lysine 0.01% solution (the working solution): 10 μg/ml, dilute In PBS (phosphate buffered saline). • Axl antibody cross-linking: • 1st: Mouse anti-Axl (R&D, MAB154). • 2nd: Biotin-SP-conjugated AffiniPure goat anti-mouse IgG (H+L) (Jackson ImmunoResearch #115-065-003). • Fixing buffer: 4% formaldehyde in PBS. • Wash buffer: 0.1% TritonX-100 in PBS. • Quenching buffer: 3% H2O2, 0.1% Azide in wash buffer, Azide and hydrogen peroxide 1(H2O2) are added fresh. • Blocking buffer: 5% BSA in TBST (tris buffered saline plus 0.1% Tween 20). • Primary antibody: Rabbit anti-human Phospho-Akt antibody (Cell Signaling 9271): 1×250 diluted in blocking buffer. • Secondary antibody: HRP (horse radish peroxidase)-conjugated Goat anti-Rabbit secondary, stock solution: Jackson ImmunoResearch (Goat anti-Rabbit HRP, #111-035-144) 1:1 diluted in glycerol, store at −20° C. The working solution: 1×2000 dilution of stock in blocking buffer. • Chemiluminescent working solution (Pierce, 37030): SuperSignal ELISA (enzyme linked immunosorbant assay) Pico Chemiluminescent substrate. • Crystal Violet solution: Stock: 2.5% Crystal violet in methanol, filtered and kept at ambient temperature. The working solution: dilute the stock 1:20 with PBS immediately before use. • 10% SDS: working solution: 5% SDS (sodium dodecylsulfate), diluted in PBS Methods: Day 1:
A 96 well TC (tissue culture treated) plate was coated with 10 μg/mL poly-L-Lysine at 37° C. for 30 min, washed twice with PBS, and air-dried for 5 minutes before cells were added. Hela cells were seeded at 10,000 cells/well and the cells were starved in 100 μL starvation medium containing Axl/Fc for 24 hrs.
The cells were pre-treated with test compounds by adding 100 μL of 2× test compound to the starvation medium on the cells. The cells were incubated at 37° C. for 1 hr before stimulation.
The cells were stimulated by Axl-antibody cross-linking as follows: A 5×1st/2nd Axl antibody mixture was made (37.5 μg/mL 1st/100 μg/mL 2nd) in starvation medium and nutated at 4° C. with thorough mixing for 1-2 hours for clustering. The resulting mix was warmed to 37° C. 50 μL of 5×Axl 1st/2nd of antibody cluster was added to the cells and the cells were incubated at 37° C. for 5 min.
After 5 minutes stimulation, the plate was flicked to remove medium and the plate was tapped onto paper towels. Formaldehyde (4.0% in PBS, 100 μL) was added to fix the cells and the cells were incubated at ambient temperature for 20 min without shaking.
The cells were washed with a plate washer buffer to remove the formaldehyde solution. The plate was flicked to removed excess wash buffer and tapped onto paper towels. Quenching buffer (100 μL) was added to each well and the cells were incubated at ambient temperature for 20 minutes without shaking.
The cells were washed with a plate washer buffer to remove the quenching buffer. Blocking buffer (100 μL) was added and the cells were incubated at ambient temperature for at least an hour with gentle shaking.
The cells were washed with a plate washer buffer and diluted primary antibody (50 μL) was added to each well (blocking buffer was added to the negative control wells instead). The plates were incubated overnight at 4° C. with gentle shaking.
The wash buffer was removed, diluted secondary antibody (100 μL) was added, and the cells were incubated at ambient temperature for 1 hour with gentle shaking. […]

Row | Structure (SMILES) | IC50
1 | CC1(C)[C@H]2C[C@H](C(N)=O)[C@](C)(Nc3nc(Nc4ccc(OCCN5CCCC5)c(F)c4)ncc3Cl)[C@@H]1C2 [Compound 30, (1R,2R,3S,5R)-2-(5-chloro-2-(3-fluoro-4-(2-(pyrrolidin-1-yl)ethoxy)phenylamino)pyrimidin-4-ylamino)-2,6,6-trimethylbicyclo[3.1.1]heptane-3-carboxamide] | < 1000 nM
2 | CNC(=O)[C@H]1C[C@H]2C[C@H](C2(C)C)[C@@]1(C)Nc1nc(Nc2ccc(N3CCC(F)(F)CC3)c(F)c2)ncc1F [Compound 35, (1R,2R,3S,5R)-2-(5-fluoro-2-(3-fluoro-4-(4,4-difluoropiperidin-1-yl)phenylamino)pyrimidin-4-ylamino)-N,2,6,6-tetramethylbicyclo[3.1.1]heptane-3-carboxamide] | > 20000 nM
3 | CNC(=O)[C@H]1C[C@H]2C[C@H](C2(C)C)[C@@]1(C)Nc1nc(Nc2ccc(N3CCN(S(C)(=O)=O)CC3)c(C(F)(F)F)c2)ncc1F [Compound 37, (1R,2R,3S,5R)-2-(5-fluoro-2-(3-trifluoromethyl-4-(4-methylsulfonylpiperazin-1-yl)phenylamino)pyrimidin-4-ylamino)-N,2,6,6-tetramethylbicyclo[3.1.1]heptane-3-carboxamide] | > 20000 nM
4 | CNC(=O)[C@H]1C[C@H]2C[C@H](C2(C)C)[C@@]1(C)Nc1nc(Nc2ccc(N3CCC(N4CCC(C)CC4)CC3)c(F)c2)ncc1F [Compound 55, (1R,2R,3S,5R)-2-(5-fluoro-2-(3-fluoro-4-(4-(4-methylpiperidin-1-yl)piperidin-1-yl)phenylamino)pyrimidin-4-ylamino)-N,2,6,6-tetramethylbicyclo[3.1.1]heptane-3-carboxamide] | < 1000 nM
5 | CN1CCN(c2ccc(Nc3ncc(Cl)c(N[C@@]4(CCOCc5ccccc5)[C@@H](C(N)=O)C[C@H]5C[C@@H]4C5(C)C)n3)cc2F)CC1 [Compound 17, (1R,2R,3S,5R)-2-(2-(benzyloxy)ethyl)-2-(5-chloro-2-(3-fluoro-4-(4-methylpiperazin-1-yl)phenylamino)pyrimidin-4-ylamino)-6,6-dimethylbicyclo[3.1.1]heptane-3-carboxamide] | > 20000 nM

Other lines, results leading:

Row | IC50 | Structure (SMILES)
6 | 1000 to 10000 nM | CNC(=O)[C@H]1C[C@H]2C[C@H](C2(C)C)[C@@]1(C)Nc1nc(Nc2ccc(N3CCOCC3)cc2)ncc1Cl [Compound 2, (1R,2R,3S,5R)-2-(5-chloro-2-(4-morpholinophenylamino)pyrimidin-4-ylamino)-N,2,6,6-tetramethylbicyclo[3.1.1]heptane-3-carboxamide]
7 | < 1000 nM | CNC(=O)[C@H]1C[C@H]2C[C@H](C2(C)C)[C@@]1(C)Nc1nc(Nc2ccc(N3CCN(C)CC3)c(F)c2)ncc1Cl [Compound 4, (1R,2R,3S,5R)-2-(5-chloro-2-(3-fluoro-4-(4-methylpiperazin-1-yl)phenylamino)pyrimidin-4-ylamino)-N,2,6,6-tetramethylbicyclo[3.1.1]heptane-3-carboxamide]
8 | 1000 to 10000 nM | CNC(=O)[C@H]1C[C@H]2C[C@H](C2(C)C)[C@@]1(C)Nc1nc(Nc2ccc(N3CCC(F)(F)CC3)c(F)c2)ncc1C [Compound 44, (1R,2R,3S,5R)-2-(5-methyl-2-(3-fluoro-4-(4,4-difluoropiperidin-1-yl)phenylamino)pyrimidin-4-ylamino)-N,2,6,6-tetramethylbicyclo[3.1.1]heptane-3-carboxamide]
9 | 1000 to 10000 nM | CNC(=O)[C@H]1C[C@H]2C[C@H](C2(C)C)[C@@]1(C)Nc1nc(Nc2ccc(Cl)c(N3CCN(C(C)=O)CC3)c2)ncc1Cl [Compound 16, (1R,2R,3S,5R)-2-(2-(3-(4-acetylpiperazin-1-yl)-4-chlorophenylamino)-5-chloropyrimidin-4-ylamino)-N,2,6,6-tetramethylbicyclo[3.1.1]heptane-3-carboxamide]
10 | 1000 to 10000 nM | CCN1CCN(c2cc(Nc3ncc(Cl)c(N[C@@]4(C)[C@@H](C(=O)NC)C[C@H]5C[C@@H]4C5(C)C)n3)ccc2Cl)CC1 [Compound 15, (1R,2R,3S,5R)-2-(5-chloro-2-(4-chloro-3-(4-ethylpiperazin-1-yl)phenylamino)pyrimidin-4-ylamino)-N,2,6,6-tetramethylbicyclo[3.1.1]heptane-3-carboxamide]

same assay, conditions: Table 3, formula (Ic); Hela cells, Axl antibody cross-linking stimulation, phospho-Akt chemiluminescence normalized to relative cell number

Row | IC50 | Structure (SMILES)
11 | 1000 to 10000 nM | CNC(=O)[C@H]1C[C@H]2C[C@H](C2(C)C)[C@@]1(C)Nc1nc(Nc2ccc3c(c2)N(CCN(C)C)CCO3)ncc1Cl [Compound 50, (1R,2R,3S,5R)-2-(5-chloro-2-((3,4-dihydro-4-(2-(dimethylamino)ethyl)-2H-benzo[b][1,4]oxazin-6-yl)amino)pyrimidin-4-ylamino)-N,2,6,6-tetramethylbicyclo[3.1.1]heptane-3-carboxamide]
12 | < 1000 nM | CCN(CC)CCN1CCOc2cc(Nc3ncc(F)c(N[C@@]4(C)[C@@H](C(=O)NC)C[C@H]5C[C@@H]4C5(C)C)n3)ccc21 [Compound 46, (1R,2R,3S,5R)-2-(5-fluoro-2-((3,4-dihydro-4-(2-(diethylamino)ethyl)-2H-benzo[b][1,4]oxazin-7-yl)amino)pyrimidin-4-ylamino)-N,2,6,6-tetramethylbicyclo[3.1.1]heptane-3-carboxamide]
13 | < 1000 nM | CC(C)NC(=O)[C@H]1C[C@H]2C[C@H](C2(C)C)[C@@]1(C)Nc1nc(Nc2ccc3c(c2)OCCN3CCN(C)C)ncc1Cl [Compound 64, (1R,2R,3S,5R)-2-(5-chloro-2-((3,4-dihydro-4-(2-(dimethylamino)ethyl)-2H-benzo[b][1,4]oxazin-7-yl)amino)pyrimidin-4-ylamino)-N-(1-methylethyl)-2,6,6-trimethylbicyclo[3.1.1]heptane-3-carboxamide]
14 | 1000 to 10000 nM | CNC(=O)[C@H]1C[C@H]2C[C@H](C2(C)C)[C@@]1(C)Nc1nc(Nc2ccc3c(c2)OCCN3CCN(C)C)ncc1C [Compound 49, (1R,2R,3S,5R)-2-(5-methyl-2-((3,4-dihydro-4-(2-(dimethylamino)ethyl)-2H-benzo[b][1,4]oxazin-7-yl)amino)pyrimidin-4-ylamino)-N,2,6,6-tetramethylbicyclo[3.1.1]heptane-3-carboxamide]
